Assay results reported in patent US20120225862A1, “HETEROARYL BENZAMIDES, COMPOSITIONS AND METHODS OF USE” (AUCKLAND UNIVSERVICES LIMITED, priority 2009, published 2012).

Columns and labels:
[1] = test system: RCC4; test: Necrotic cell death by trypan blue, RCC4; assay type: cell-based, human; details: 3 days, 5 μM, FIG. 2F
Experimental: For 2,3-bis[2-methoxy-4-nitro-5-sulfophenyl]-2H-tetrazolium-5-carboxanilide (XTT) assays, five thousand cells were plated in 96-well plates. The next day, vehicle (DMSO) or drug was added by serial dilution. Four days later, media were aspirated, XTT solution (0.3 mg/ml of XTT (Sigma), 2.65 mg/ml N-methyl dibenxopyrazine methyl sulfate (Simga) in phenol red-free media) was added, and the plates were incubated at 37° C. for 1-2 hours. Metabolism of XTT was quantified by measuring the absorbance at 450 nm. IC50s were calculated using linear interpolation. For clonogenic survival assays, three hundred cells were plated per 60 mm tissue culture dish. The cells were allowed to attach overnight and then treated with vehicle or drug for 14 days. Colonies were fixed and stained with crystal violet (0.1% crystal violet in 95% ethanol). All conditions were measured in triplicate and each experiment was done in duplicate or triplicate. To determine necrosis, cells were treated with drug for a given time point. Media and cells were collected, centrifugated, and resuspended in 0.4% trypan blue (Invitrogen). Live and dead cells were counted on a hematocytometer.

[2] = test system: PI3K; test: In vitro kinase activity (Millipore KinaseProfiler): PI3K; assay type: biochemical; details: no head or unit printed
Experimental: (§1) All cells were grown in DMEM+10% FCS. ACHN and ACHN shVHL were a kind gift from George V. Thomas (UCLA). HIF overexpressing clones were described previously. Transfection of RNA oligos were performed with DnarmaFECT Reagent 1 (Dharmcon), according to manufacturer's directions. ON-TARGETplus SMART pools against HIF-1β/ARNT were purchased from Dharmacon. Glut1 was detected with anti-GLUT1 antibody from NeoMarkers/LabVision/Fisher. Pyruvate/lactate levels and hexokinase activity were both measured by fluorometric assay (BioVision and Sigma-Aldrich, respectively). ATP levels were measured by bioluminescence assay (ATP Determination Kit from Molecular Probes/Invitrogen). In vitro kinase activities were performed by Millipore KinaseProfiler. Affi-Gel 10 (BioRad) activated affinity media was coupled to analogs to generate immobilized affinity linkers.
(§2) We next wanted to investigate the differential glucose uptake between RCCs with and without VHL treated with compound 47 that subsequently lead to the selective death of VHL-deficient cells. We first examined the message levels of the two main glucose transporters, GLUT1 and GLUT2 by quantitative real-time PCR. GLUT1 is an inducible, high-affinity glucose transporter, while GLUT2 is the glucose transporter responsible for basal glucose uptake. […] Cells deficient in VHL had very low levels of GLUT2 that could barely be detected (FIG. 3J). […]

[3] = biological target: T1, EphA1 (Homo sapiens, UniProt P21709); test: In vitro kinase activity (Millipore KinaseProfiler): EphA1; assay type: biochemical; details: no head or unit printed
T1 construct: purchased Millipore (KinaseProfiler service)
T1 sequence (P21709 26-976, species assumed): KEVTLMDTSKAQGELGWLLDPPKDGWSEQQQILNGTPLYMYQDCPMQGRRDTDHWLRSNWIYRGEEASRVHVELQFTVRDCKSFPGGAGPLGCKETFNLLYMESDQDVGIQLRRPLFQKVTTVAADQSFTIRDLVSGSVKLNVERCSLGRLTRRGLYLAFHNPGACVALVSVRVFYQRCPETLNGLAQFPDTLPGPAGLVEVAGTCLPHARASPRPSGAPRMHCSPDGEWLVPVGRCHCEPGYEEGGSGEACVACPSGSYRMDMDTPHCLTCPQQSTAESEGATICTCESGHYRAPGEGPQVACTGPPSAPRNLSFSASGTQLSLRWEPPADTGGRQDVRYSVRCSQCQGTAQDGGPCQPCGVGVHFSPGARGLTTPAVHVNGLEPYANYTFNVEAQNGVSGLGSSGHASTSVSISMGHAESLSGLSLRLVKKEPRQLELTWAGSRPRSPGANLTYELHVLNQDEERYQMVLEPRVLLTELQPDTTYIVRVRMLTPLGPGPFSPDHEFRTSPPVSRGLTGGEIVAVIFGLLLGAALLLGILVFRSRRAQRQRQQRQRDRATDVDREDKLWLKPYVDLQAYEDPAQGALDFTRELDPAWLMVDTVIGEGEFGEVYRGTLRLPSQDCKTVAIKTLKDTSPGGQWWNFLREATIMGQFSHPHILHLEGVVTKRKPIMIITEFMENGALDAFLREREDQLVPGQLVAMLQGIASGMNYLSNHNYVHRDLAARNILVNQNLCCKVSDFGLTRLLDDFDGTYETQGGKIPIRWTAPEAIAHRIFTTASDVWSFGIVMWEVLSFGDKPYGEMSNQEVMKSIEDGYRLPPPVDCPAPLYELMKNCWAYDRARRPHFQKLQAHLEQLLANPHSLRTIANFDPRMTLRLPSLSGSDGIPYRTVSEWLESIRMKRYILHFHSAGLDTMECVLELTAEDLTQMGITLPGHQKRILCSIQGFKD
Experimental: as §1, §2

[4] = biological target: T2, PKA (Homo sapiens, UniProt P17612); test: In vitro kinase activity (Millipore KinaseProfiler): PKA; assay type: biochemical; details: no head or unit printed
T2 construct: purchased Millipore (KinaseProfiler service)
Experimental: as §1, §2

[5] = biological target: T3, SAPK2a (Homo sapiens, UniProt Q16539); test: In vitro kinase activity (Millipore KinaseProfiler): SAPK2a; assay type: biochemical; details: no head or unit printed
T3 construct: purchased Millipore (KinaseProfiler service)
T3 sequence (Q16539 whole entry): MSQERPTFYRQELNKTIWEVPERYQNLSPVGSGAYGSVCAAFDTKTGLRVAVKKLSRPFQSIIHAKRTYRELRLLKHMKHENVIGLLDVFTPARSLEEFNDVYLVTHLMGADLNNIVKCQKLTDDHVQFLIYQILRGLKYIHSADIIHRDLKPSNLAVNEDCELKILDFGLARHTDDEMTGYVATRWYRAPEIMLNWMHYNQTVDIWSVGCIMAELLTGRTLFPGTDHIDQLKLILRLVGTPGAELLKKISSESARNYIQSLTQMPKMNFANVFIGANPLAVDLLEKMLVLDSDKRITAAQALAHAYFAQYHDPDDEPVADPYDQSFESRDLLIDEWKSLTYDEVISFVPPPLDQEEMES
Experimental: as §1, §2

[6] = biological target: T4, MLK1 (Homo sapiens, UniProt P80192); test: In vitro kinase activity (Millipore KinaseProfiler): MLK1; assay type: biochemical; details: no head or unit printed
T4 construct: purchased Millipore (KinaseProfiler service)
T4 sequence (P80192 whole entry, species assumed): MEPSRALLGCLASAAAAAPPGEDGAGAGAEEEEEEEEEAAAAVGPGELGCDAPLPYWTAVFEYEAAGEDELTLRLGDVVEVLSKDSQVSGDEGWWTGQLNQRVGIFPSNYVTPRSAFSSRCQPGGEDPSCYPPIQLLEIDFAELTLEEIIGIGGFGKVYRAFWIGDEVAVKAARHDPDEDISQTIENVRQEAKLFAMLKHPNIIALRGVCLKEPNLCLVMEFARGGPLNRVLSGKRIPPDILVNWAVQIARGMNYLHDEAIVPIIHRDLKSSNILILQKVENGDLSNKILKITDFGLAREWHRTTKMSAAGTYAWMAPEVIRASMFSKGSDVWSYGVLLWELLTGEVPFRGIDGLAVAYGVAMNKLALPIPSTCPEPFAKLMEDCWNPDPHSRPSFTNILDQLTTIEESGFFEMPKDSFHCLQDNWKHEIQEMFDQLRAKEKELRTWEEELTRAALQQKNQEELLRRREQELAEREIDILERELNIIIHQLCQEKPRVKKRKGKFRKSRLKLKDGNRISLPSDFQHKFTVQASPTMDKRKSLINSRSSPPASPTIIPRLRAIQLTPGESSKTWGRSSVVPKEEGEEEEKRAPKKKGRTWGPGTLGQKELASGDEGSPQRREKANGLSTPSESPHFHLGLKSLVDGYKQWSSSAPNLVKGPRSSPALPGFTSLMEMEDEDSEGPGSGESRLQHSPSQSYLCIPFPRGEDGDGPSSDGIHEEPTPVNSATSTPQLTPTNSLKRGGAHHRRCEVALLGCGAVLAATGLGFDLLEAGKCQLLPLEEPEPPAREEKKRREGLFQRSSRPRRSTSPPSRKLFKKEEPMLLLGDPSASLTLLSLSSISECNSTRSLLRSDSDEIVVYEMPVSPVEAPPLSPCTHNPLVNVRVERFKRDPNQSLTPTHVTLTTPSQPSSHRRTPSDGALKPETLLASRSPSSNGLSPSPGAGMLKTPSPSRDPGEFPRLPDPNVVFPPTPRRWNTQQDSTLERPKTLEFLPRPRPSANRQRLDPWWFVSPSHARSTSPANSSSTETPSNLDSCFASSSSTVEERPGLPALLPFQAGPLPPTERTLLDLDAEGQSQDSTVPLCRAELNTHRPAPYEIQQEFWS
Experimental: as §1, §2

[7] = test system: hexokinase; test: Hexokinase activity in whole cell lysates, RCC4; assay type: cell-based, human; details: 5 μM
Experimental: as §1
(§3) We then examined whether this decrease in glycolysis in response to compound 47 was due to a decrease in glucose uptake or whether compound 47 inhibited a particular glycolytic enzyme. To test this, we measured glucose uptake using 2-deoxy-D-[^3H] glucose, a non-hydrolyzable, radioactive glucose analog, following two days of treatment with compound 47. […] RCC4/VHL cells had lower baseline levels of glucose uptake compared to RCC4 cells and were unaffected by treatment with compound 47. […]

[8] = biological target: T5, Plk3 (Homo sapiens, UniProt Q9H4B4); test: In vitro kinase activity (Millipore KinaseProfiler): Plk3; assay type: biochemical; details: no head or unit printed
T5 construct: purchased Millipore (KinaseProfiler service)
T5 sequence (Q9H4B4 whole entry, species assumed): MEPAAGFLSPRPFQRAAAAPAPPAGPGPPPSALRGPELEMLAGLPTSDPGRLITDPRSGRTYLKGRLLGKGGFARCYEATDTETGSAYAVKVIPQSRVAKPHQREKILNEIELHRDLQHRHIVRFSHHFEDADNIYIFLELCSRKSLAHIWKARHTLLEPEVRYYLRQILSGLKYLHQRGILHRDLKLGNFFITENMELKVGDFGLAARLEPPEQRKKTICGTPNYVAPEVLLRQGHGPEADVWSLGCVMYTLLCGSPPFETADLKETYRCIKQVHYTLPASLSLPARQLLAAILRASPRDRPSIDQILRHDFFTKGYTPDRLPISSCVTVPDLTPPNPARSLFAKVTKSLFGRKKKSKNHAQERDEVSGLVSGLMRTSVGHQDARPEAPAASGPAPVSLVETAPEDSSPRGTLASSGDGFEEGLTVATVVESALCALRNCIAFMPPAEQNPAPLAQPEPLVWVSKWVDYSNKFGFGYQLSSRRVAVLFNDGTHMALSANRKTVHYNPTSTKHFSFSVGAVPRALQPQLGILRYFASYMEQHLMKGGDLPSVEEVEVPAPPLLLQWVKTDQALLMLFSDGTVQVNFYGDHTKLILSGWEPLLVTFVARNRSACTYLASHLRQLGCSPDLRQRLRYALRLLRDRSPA
Experimental: as §1, §2

[9] = test system: hexokinase; test: Hexokinase activity in whole cell lysates, RCC4/VHL; assay type: cell-based, human; details: 5 μM
Experimental: as §1, §3

[10] = test system: RCC4 cells transfected with siRNA to HIF-1β; test: 3H-2-deoxyglucose uptake, RCC4 with siRNA to HIF-1β; assay type: cell-based, human; details: 5 μM, FIG. 3E
Experimental: as §1
One hundred thousand cells were plated per well in a six-well plate. The next day, cells were treated with the indicated concentration of drug and incubated for the indicated time. […] Glucose uptake was quantified with a scintillation counter.
To further investigate the relationship between HIF and compound 47 toxicity, we silenced HIF-1β in RCC4 cells and assessed its affect on glucose uptake. […]

SMILES: CC(C)(C)c1ccc(S(=O)(=O)NCc2ccc(C(=O)Nc3cccnc3)cc2)cc1 [Example 38, 4-((4-tert-Butylphenylsulfonamido)methyl)-N-(pyridin-3-yl)benzamide]
- RCC4 cells exhibiting necrotic cell death [1]: greater than 80%
- PI3K kinase activity [2]: 97
- EphA1 kinase activity [3]: 102
- PKA kinase activity [4]: 96
- SAPK2a kinase activity [5]: 127
- MLK1 kinase activity [6]: 97%
- hexokinase activity in RCC4 [7]: inhibited by compound 47 only after three days of treatment
- Plk3 kinase activity [8]: 104
- hexokinase activity in RCC4/VHL [9]: unchanged
- glucose uptake in RCC4 with HIF-1β silenced [10]: insensitive
